Measurements taken from article PMC6008489 (Bioorganic & Medicinal Chemistry, 2018).
Where two headings read alike, the source gives them in different places.

Experiments:
[1] = biological target: T1, PRAK (Homo sapiens, UniProt Q8IW41); assay: 26-kinase panel mobility shift assay, single concentration; format: biochemical; settings: read-out: % Inhibition PRAK
T1 construct: purchased Perkin Elmer (ProfilerPro assay kit 1)
T1 sequence (Q8IW41 1-473): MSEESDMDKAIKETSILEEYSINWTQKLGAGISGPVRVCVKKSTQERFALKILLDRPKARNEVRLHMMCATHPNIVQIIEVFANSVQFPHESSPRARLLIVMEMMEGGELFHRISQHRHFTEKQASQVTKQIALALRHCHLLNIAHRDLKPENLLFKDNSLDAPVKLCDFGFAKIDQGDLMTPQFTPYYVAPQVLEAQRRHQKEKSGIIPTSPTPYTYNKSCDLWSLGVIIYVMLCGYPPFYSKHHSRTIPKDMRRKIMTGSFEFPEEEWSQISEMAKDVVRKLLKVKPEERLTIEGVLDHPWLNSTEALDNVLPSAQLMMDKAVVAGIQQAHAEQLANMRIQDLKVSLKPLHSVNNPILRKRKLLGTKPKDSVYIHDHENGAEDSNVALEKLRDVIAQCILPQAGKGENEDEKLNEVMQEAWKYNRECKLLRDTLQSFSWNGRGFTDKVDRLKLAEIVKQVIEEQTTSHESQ
Method: (§1) A mobility shift assay to determine kinase inhibition was carried out using a
(§2) modified version of the ProfilerPro assay kit 1 (Perkin Elmer, Coventry, UK)
(§3) including MPS1 and Aurora B. Each kit contained an enzyme plate, a substrate
(§4) plate, reconstitution buffer, 1 M DTT, protease inhibitor cocktail and termination
(§5) buffer. Test compounds were added as a solution in DMSO.
final concentration. […] The
(§6) peptide phosphorylation assay was carried out as per the manufacturer’s
(§7) instructions. The electrophoretic separation and analysis of the phosphorylated
(§8) and non-phosphorylated peptides was carried out on a 4-sipper chip using a
(§9) LabChip EZReader II (Perkin Elmer). Results were expressed as % inhibition of
(§10) peptide phosphorylation relative to control wells for 0 % (no test compound) and
(§11) 100 % (no ATP) inhibition. The percentage inhibition was calculated using the
(§12) % Inhibition = [1 - (% Conversion Sample / % Conversion 0% Inhibition Control)] x 100

[2] = biological target: T2, p38 (Homo sapiens, UniProt Q16539); assay: as above; format: biochemical; settings: read-out: % Inhibition p38
T2 construct: purchased Perkin Elmer (ProfilerPro assay kit 1)
Method: (§13) In order to test the biochemical activity of our fragment library, a panel of 26 structurally diverse protein kinases was used.
Mobility Shift Assay Protocol
(§14) Screening of 26 kinases using a mobility shift assay
as §1, §2, §3, §4, §5
final concentration. […] The
as §6, §7, §8, §9, §10, §11, §12

[3] = biological target: T3, LCK (Homo sapiens, UniProt P06239); assay: as above; format: biochemical; settings: read-out: % Inhibition LCK
T3 construct: purchased Perkin Elmer (ProfilerPro assay kit 1)
Method: as §1, §2, §3, §4, §5, §6, §7, §8, §9, §10, §11, §12

[4] = biological target: T4, GSK3b (Homo sapiens, UniProt P49841); assay: as above; format: biochemical; settings: read-out: % Inhibition GSK3
T4 construct: purchased Perkin Elmer (ProfilerPro assay kit 1)
Method: as §1, §2, §3, §4, §5, §6, §7, §8, §9, §10, §11, §12

[5] = biological target: T5, CHK2 (Homo sapiens, UniProt O96017); assay: as above; format: biochemical; settings: read-out: % Inhibition CHK2
T5 construct: purchased Perkin Elmer (ProfilerPro assay kit 1)
Method: as §1, §2, §3, §4, §5, §6, §7, §8, §9, §10, §11, §12

[6] = biological target: T6, MSK1 (Homo sapiens, UniProt O75582); assay: as above; format: biochemical; settings: read-out: % Inhibition MSK1
T6 construct: purchased Perkin Elmer (ProfilerPro assay kit 1)
Method: as §13
Mobility Shift Assay Protocol
as §14, §1, §2, §3, §4, §5
final concentration. […] The
as §6, §7, §8, §9, §10, §11, §12

[7] = biological target: T7, AKT2 (Homo sapiens, UniProt P31751); assay: as above; format: biochemical; settings: read-out: % Inhibition AKT2
T7 construct: purchased Perkin Elmer ProfilerPro assay kit 1
Method: as §13, §14, §1, §2, §3, §4, §5, §6, §7, §8, §9, §10, §11, §12

[8] = biological target: T8, CHK1 (Homo sapiens, UniProt O14757); assay: as above; format: biochemical; settings: read-out: % Inhibition CHK1
T8 construct: purchased Perkin Elmer ProfilerPro assay kit 1
T8 sequence (O14757 1-476): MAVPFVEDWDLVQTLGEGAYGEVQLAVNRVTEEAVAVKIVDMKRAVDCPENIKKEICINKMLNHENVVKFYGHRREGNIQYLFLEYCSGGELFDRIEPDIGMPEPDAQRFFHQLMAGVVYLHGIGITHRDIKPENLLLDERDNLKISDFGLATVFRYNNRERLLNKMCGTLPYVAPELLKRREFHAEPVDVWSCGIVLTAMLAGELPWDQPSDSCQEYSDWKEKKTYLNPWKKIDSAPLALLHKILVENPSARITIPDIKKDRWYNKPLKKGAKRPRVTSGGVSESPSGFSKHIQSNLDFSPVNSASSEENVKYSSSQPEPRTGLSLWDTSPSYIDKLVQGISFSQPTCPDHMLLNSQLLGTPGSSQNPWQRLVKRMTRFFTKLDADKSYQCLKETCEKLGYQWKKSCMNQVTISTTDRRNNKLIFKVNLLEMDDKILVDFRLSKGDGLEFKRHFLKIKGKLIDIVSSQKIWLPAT
Method: as §1, §2, §3, §4, §5, §6, §7, §8, §9, §10, §11, §12

[9] = biological target: T9, Erk2 (Homo sapiens, UniProt P28482); assay: as above; format: biochemical; settings: read-out: % Inhibition Erk2
T9 construct: purchased Perkin Elmer (ProfilerPro assay kit 1)
Method: as §1, §2, §3, §4, §5, §6, §7, §8, §9, §10, §11, §12

[10] = biological target: T10, INSR (Homo sapiens, UniProt P06213); assay: as above; format: biochemical; settings: read-out: % Inhibition INSR
T10 construct: purchased Perkin Elmer (ProfilerPro assay kit 1)
Method: as §13, §14, §1, §2, §3, §4, §5, §6, §7, §8, §9, §10, §11, §12

[11] = biological target: T11, Aurora A (Homo sapiens, UniProt O14965); format: biochemical; settings: for Ki: calculated from mean IC50 using the Cheng-Prusoff equation, read-out: AurA Ki; for AurA ligand efficiency (LE): from Ki
T11 sequence (O14965 1-403): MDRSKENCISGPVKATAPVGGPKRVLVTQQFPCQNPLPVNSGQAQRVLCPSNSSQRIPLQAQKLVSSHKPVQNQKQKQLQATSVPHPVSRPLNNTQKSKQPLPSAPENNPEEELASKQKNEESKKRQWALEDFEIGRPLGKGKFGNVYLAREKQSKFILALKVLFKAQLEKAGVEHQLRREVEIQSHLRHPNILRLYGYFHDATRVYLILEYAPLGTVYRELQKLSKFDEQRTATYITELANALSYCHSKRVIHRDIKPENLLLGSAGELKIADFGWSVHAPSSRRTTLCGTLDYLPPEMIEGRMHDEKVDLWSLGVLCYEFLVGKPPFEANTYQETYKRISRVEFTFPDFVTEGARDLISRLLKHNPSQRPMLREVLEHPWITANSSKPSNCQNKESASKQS
Method: IC50 values were obtained for an expanded version of the fragment library using the previously described mobility shift assay.[44] Subsequently, Ki values were estimated from IC50 values to allow better comparison of the activity against targets which were measured at different substrate concentrations (Supplementary data Table 1).
IC50 values for MPS1, Aurora A and Aurora B inhibition were determined as previously described,[44] and Ki values were estimated from the mean IC50 values using the Cheng-Prusoff equation.[48]
Kinase [ATP] (M) [Enzyme] (nM) [Peptide Substrate] (M) MgCl2 (mM)
For all compounds, IC50 values for MPS1, Aurora A, and Aurora B were determined
using MPS1 and Aurora A/B mobility shift assays as described previously.1 IC50
values were calculated from a four-parameter logistic fit of percentage inhibition
versus concentration (at 8 compound concentrations) using GraphPad Prism 5
(GraphPad Software, Inc., CA, USA). Mean IC50 values were determined from two
independent measurements each carried out in duplicate. Ki values were estimated
from the mean IC50 values using the Cheng-Prusoff equation.

[12] = biological target: T12, MPS1 (Homo sapiens, UniProt P33981); assay: biochemical; settings: read-out: % Inhibition MPS1
T12 sequence (P33981 1-857): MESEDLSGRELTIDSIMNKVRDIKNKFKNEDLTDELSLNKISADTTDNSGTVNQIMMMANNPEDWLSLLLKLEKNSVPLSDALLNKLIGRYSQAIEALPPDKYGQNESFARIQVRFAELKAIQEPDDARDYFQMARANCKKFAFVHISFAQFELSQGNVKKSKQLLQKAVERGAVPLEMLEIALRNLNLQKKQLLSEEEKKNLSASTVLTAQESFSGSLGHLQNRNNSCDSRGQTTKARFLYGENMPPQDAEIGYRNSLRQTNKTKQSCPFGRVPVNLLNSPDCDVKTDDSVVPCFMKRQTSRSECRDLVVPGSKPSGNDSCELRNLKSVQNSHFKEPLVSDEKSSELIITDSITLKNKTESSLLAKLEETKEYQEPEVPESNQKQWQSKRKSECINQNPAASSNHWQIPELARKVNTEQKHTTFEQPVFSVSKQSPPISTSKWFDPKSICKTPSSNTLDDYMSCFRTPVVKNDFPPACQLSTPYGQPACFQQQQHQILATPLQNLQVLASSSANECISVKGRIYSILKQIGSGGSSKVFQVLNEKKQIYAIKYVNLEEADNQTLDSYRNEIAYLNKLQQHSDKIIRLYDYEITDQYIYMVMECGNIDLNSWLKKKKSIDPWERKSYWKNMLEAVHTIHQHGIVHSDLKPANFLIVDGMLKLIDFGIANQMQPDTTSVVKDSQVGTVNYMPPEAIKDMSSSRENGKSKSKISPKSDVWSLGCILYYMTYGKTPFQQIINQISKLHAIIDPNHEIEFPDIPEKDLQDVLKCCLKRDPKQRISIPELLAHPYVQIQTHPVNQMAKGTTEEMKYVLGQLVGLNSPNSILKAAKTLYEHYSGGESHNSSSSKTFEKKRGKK
Method: as §13, §14, §1, §2, §3, §4, §5, §6, §7, §8, §9, §10, §11, §12

T6 sequence (O75582 whole entry): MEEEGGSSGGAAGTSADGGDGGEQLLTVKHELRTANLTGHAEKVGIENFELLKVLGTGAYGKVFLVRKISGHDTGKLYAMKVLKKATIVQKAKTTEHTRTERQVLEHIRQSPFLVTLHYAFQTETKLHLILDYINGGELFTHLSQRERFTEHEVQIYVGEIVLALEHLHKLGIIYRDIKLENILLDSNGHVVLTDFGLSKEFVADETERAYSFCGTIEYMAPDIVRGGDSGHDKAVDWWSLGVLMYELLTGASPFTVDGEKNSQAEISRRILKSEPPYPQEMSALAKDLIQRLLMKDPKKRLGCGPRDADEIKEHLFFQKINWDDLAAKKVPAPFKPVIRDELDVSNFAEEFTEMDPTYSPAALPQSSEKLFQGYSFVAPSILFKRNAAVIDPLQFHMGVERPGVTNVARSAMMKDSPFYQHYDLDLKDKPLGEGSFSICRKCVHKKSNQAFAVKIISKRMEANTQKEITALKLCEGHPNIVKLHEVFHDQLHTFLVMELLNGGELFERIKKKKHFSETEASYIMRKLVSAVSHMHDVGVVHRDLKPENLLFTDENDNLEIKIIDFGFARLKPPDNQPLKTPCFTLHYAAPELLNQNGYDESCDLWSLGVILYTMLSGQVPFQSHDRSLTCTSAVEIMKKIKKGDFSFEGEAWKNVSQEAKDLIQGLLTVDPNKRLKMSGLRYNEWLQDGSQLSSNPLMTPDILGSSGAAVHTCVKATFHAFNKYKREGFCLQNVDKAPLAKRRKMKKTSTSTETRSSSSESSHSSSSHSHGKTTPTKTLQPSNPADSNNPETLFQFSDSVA
T2 sequence (Q16539 whole entry): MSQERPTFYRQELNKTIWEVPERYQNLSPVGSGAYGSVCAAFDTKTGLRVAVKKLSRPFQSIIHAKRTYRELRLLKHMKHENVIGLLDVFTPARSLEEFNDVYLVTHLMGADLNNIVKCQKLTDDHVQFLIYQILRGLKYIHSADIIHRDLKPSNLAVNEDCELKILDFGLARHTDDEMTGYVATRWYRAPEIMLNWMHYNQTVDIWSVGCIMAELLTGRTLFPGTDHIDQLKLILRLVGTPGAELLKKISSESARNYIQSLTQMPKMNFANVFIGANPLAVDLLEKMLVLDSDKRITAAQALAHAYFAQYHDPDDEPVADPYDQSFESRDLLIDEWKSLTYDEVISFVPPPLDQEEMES
T4 sequence (P49841 whole entry): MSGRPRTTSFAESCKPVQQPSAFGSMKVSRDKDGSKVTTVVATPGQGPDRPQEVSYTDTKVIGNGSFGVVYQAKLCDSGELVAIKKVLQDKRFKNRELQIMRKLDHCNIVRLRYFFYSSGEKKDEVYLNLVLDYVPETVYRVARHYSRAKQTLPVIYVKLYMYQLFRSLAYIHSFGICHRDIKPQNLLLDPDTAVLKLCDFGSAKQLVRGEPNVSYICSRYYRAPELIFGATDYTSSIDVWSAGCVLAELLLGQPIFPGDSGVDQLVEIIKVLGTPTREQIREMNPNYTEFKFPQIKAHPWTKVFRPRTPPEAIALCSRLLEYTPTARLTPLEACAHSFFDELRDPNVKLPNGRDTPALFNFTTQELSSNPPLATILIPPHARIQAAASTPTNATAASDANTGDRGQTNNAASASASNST
T5 sequence (O96017 whole entry): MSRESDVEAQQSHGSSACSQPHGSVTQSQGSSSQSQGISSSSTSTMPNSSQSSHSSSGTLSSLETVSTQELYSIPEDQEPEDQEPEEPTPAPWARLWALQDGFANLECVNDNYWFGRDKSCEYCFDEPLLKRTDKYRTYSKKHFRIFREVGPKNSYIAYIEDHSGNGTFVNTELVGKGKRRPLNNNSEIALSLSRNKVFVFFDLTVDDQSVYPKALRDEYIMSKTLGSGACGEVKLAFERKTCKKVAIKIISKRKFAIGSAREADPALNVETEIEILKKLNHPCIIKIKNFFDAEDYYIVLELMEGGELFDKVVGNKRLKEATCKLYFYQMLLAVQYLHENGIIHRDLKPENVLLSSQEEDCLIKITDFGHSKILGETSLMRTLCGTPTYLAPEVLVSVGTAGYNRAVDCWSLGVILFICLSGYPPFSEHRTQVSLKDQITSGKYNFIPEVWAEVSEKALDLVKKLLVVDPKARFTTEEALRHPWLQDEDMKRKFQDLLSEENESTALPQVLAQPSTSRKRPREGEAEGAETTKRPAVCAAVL
T10 sequence (P06213 28-1382): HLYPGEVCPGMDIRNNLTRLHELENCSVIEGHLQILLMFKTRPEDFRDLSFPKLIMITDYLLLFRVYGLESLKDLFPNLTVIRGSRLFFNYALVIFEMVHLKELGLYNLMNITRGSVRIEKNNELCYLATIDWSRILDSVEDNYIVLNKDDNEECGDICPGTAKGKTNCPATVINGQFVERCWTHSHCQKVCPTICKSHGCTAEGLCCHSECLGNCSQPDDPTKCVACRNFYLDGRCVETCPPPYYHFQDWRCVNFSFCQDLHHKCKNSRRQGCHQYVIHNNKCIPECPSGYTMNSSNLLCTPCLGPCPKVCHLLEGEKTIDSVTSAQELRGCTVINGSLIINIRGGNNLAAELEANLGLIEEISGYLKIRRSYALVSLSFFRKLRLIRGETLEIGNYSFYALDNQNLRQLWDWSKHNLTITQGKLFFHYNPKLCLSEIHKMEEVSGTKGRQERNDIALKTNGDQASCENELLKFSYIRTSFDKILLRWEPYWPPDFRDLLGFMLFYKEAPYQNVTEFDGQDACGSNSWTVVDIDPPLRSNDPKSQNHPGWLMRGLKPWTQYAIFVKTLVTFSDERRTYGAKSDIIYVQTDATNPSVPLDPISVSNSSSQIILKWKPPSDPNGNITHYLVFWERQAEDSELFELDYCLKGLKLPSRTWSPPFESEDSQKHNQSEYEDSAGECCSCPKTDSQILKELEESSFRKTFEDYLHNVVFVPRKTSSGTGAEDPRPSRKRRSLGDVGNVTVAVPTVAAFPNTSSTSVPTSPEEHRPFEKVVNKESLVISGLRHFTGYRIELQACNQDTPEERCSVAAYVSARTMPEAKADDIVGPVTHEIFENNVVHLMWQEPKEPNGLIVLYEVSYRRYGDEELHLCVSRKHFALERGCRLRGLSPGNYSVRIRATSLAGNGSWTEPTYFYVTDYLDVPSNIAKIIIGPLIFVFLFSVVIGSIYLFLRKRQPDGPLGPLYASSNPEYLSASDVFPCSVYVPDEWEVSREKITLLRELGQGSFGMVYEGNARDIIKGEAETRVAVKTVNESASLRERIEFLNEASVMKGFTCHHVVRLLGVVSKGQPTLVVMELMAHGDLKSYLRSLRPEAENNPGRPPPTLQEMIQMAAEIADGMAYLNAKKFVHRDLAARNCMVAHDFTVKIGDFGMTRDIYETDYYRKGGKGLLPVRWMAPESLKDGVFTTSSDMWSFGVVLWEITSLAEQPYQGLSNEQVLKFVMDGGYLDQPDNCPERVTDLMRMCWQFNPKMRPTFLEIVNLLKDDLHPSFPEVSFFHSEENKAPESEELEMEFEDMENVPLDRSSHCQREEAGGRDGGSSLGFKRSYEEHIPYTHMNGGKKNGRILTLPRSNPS
T7 sequence (P31751 whole entry): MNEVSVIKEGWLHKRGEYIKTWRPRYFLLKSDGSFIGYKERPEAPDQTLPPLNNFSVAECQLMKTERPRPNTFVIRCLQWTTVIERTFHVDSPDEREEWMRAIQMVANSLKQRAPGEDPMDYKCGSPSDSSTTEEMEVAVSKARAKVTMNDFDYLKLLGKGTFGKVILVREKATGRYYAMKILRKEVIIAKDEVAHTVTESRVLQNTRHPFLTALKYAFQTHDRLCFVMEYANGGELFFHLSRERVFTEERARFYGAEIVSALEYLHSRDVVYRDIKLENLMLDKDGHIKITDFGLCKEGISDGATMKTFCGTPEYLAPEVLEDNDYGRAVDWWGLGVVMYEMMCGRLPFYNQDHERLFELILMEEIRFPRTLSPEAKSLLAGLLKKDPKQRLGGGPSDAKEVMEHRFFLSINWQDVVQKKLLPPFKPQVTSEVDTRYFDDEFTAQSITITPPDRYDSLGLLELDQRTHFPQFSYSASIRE
T3 sequence (P06239 whole entry): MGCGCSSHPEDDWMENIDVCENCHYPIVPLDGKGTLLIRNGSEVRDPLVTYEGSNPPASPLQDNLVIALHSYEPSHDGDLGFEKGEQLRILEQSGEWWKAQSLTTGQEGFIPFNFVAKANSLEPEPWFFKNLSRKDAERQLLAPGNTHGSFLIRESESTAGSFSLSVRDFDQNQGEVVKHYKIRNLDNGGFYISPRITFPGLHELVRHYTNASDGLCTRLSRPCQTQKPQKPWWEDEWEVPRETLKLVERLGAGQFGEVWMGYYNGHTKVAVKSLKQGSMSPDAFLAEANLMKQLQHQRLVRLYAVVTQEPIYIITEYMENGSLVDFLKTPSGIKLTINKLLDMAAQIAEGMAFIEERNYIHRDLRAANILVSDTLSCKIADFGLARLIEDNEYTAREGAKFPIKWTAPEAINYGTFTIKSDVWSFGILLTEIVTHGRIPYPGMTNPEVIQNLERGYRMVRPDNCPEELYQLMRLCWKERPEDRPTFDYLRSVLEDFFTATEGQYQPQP
T9 sequence (P28482 whole entry): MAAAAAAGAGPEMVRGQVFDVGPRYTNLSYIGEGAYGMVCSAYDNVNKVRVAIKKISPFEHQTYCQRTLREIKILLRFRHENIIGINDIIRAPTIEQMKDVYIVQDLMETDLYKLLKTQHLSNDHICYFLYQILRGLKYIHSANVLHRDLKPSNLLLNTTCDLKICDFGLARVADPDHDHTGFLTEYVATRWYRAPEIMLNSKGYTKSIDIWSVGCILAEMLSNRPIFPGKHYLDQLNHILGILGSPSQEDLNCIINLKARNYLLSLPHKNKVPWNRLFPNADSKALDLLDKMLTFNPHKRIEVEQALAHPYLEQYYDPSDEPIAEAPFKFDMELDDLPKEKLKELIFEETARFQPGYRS

| Structure (SMILES) | inhibition at 100 µM [1] [%] | inhibition at 100 µM [2] [%] | inhibition at 100 µM [3] [%] | inhibition at 100 µM [4] [%] | inhibition at 100 µM [5] [%] | inhibition at 100 µM [6] [%] | inhibition at 100 µM [7] [%] | inhibition at 100 µM [8] [%] | inhibition at 100 µM [9] [%] | inhibition at 100 µM [10] [%] | Ki [11] [µM] | AurA ligand efficiency (LE) [11] | inhibition at 100 µM ([12]; compound at 100 µM) [%] | inhibition at 30 µM [1] [%] | inhibition at 30 µM [2] [%] | inhibition at 30 µM [3] [%] | inhibition at 30 µM [4] [%] | inhibition at 30 µM [5] [%] | inhibition at 30 µM [6] [%] | inhibition at 30 µM [7] [%] | other results |
| --- | --- | --- | --- | --- | --- | --- | --- | --- | --- | --- | --- | --- | --- | --- | --- | --- | --- | --- | --- | --- | --- |
| Nc1ccc[nH]c1=O [Compound 1, 3-aminopyridin-2-one] | 19 | 9 | 4 | 17 | 49 | 26 | 77 | 37 | 3 | 2 | 361 | 0.59 |  |  |  |  |  |  |  |  | inhibition at 100 µM [12]: 0% |
| Cn1cc(-c2c[nH]c(=O)c(N)c2)cn1 [Compound 2, 3-Amino-5-(1-methyl-1H-pyrazol-4-yl)pyridin-2(1H)-one] | 99 | 39 | 11 | 68 | 99 | 95 | 97 | 77 | 68 | 25 | 7.5 | 0.53 | 41 |  |  |  |  |  |  |  |  |
| COc1ncc(-c2ccncc2)cc1N [Compound 5, 6-Methoxy-3,4′-bipyridin-5-amine] | 1 | 0 | 7 | 26 | 36 | 61 | 4 | 1 | 12 | 6 | 185 | 0.31 | 41 |  |  |  |  |  |  |  |  |
| Nc1cc(-c2ccnc3ccccc23)c[nH]c1=O [Compound 6] | 15 | 0 | 40 | 20 | 57 | 22 | 9 | 26 | 15 | 13 | 76.3 | 0.31 | 69 |  |  |  |  |  |  |  |  |
| CNc1nccc(-c2c[nH]c(=O)c(N)c2)n1 [Compound 7] | 88 | 25 | 55 | 89 | 98 | 94 | 93 | 79 | 53 | 80 | 21.3 | 0.40 | 71 |  |  |  |  |  |  |  |  |
| Nc1cc(-c2ccnc(NC3CC3)n2)c[nH]c1=O [Compound 8] | 24 | 12 | 38 | 87 | 61 | 27 | 18 | 26 | 45 | 27 | 30.2 | 0.34 | 87 |  |  |  |  |  |  |  |  |
| Cc1nc(O)c(N)cc1-c1ccncc1 [Compound 15, 3-Amino-6-methyl-5-(pyridin-4-yl)pyridin-2-one] | 24 | 8 | 4 | 39 | 42 | 14 | 17 | 4 | 11 | 23 | > 100 |  | 20 |  |  |  |  |  |  |  |  |
| O=C(Nc1cc(-c2ccncc2)c[nH]c1=O)c1ccccc1 [Compound 16, N-(2-Oxo-5-(pyridin-4-yl)-1,2-dihydropyridin-3-yl)benzamide] |  |  |  |  |  |  |  |  |  |  | 3.3 | 0.34 |  | 1 | 4 | 45 | 92 | 29 | 1 | 4 | inhibition at 30 µM [8]: 24%; inhibition at 30 µM [9]: 5%; inhibition at 30 µM [10]: 13%; inhibition at 30 µM ([12]; compound at 30 µM): 62% |
| CN1CCN(c2ccc(C(=O)Nc3cc(-c4ccncc4)c[nH]c3=O)cc2)CC1 [Compound 22] |  |  |  |  |  |  |  |  |  |  | 14.9 | 0.23 |  | 10 | 6 | 97 | 94 | 33 | 8 | 13 | inhibition at 30 µM [8]: 84%; inhibition at 30 µM [9]: 1%; inhibition at 30 µM [10]: 30%; inhibition at 30 µM [12]: 88% |
| O=C(Nc1cc(-c2ccnc(NC3CC3)n2)c[nH]c1=O)c1ccccc1 [Compound 24] |  |  |  |  |  |  |  |  |  |  | 17.3 | 0.25 |  | 71 | 36 | 75 | 99 | 71 | 83 | 91 | inhibition at 30 µM [8]: 0%; inhibition at 30 µM [9]: 37%; inhibition at 30 µM [10]: 27%; inhibition at 30 µM ([12]; compound at 30 µM): 76% |
